Structures are written as SMILES.

By IC50 is commonly meant the midpoint of a concentration-inhibition curve.

The target in this experiment is T1, recombinant human FLAP protein (Homo sapiens, UniProt P20292).
T1 construct: made in house; host or cells: Sf9 insect cells (100,000 x g membrane pellet)
T1 sequence (P20292 1-161): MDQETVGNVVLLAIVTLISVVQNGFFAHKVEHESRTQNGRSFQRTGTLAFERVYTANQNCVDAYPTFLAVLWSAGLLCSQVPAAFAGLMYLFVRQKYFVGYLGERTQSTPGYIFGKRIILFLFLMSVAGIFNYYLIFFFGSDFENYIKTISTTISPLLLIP
The experiment is described as follows: FLAP binding assay, Scintillation Proximity Assay, displacement of [125I]L-691,831. Conditions: read-out: hFLAP binding IC50. The protocol:
Compounds are assessed for the ability to bind to FLAP in a binding assay that measures compound-specific displacement of an iodinated (^1251) FLAP inhibitor via a Scintillation Proximity Assay format (adapted from S. Charleson et al., Mol. Pharmacol., 1992, 41, 873-879).
Cell pellets produced from sf9 insect cells expressing recombinant human FLAP protein are resuspended in buffer A [15 mM Tris-HCl (pH 7.5), 2 mM MgCl2, 0.3 mM EDTA, 1 mM PMSF]. The cells are lysed with a Dounce homogenizer and the material is centrifuged at 10,000×g for 10 minutes. The supernatant is then collected and centrifuged at 100,000×g for 60 minutes. To prepare membrane protein for an assay, an aliquot of the 100,000×g pellet is resuspended in 1 ml of buffer A, Dounce homogenized, and finally subjected to polytron mixing (30 seconds). Membrane protein (25 μl, 5 μg) is mixed with WGA SPA beads (Amersham) and stirred for 1 h. To an assay plate (Perkin Elmer FlexiPlate) is added 25 μl of test compound prepared in Binding buffer [100 mM Tris (pH 7.5), 140 mM NaCl, 5% glycerol, 2 mM EDTA, 0.5 mM TCEP, 0.05% Tween 20], 25 μl of [^125I]L-691,831 (an iodinated analog of MK-591, Charleson et al. Mol. Pharmacol., 41, 873-879, 1992) and finally 50 μl of the bead/protein mixture. (final concentrations: beads, 200 μg/well; protein, 5 μg/well; [^125I] probe, 0 08 nM/well (17 nCi/well). The plates are shaken for 2 h before reading on a Microbeta plate reader. Non-specific binding is determined by the addition of 10 μM cold L-691,831 compound.
Regarding `COc1ccc(-c2ccc(C(=O)c3c(CC(C)(C)C(=O)O)c(C(=O)C(C)(C)C)c4cc(C(C)C)ccn34)cc2)cn1`, the IC50 worked out at 232 nM. Then `CC(C)(C)C(=O)c1c(CC(C)(C)C(=O)O)c(C(=O)c2ccc(Cl)cc2)c2ccc(OCc3ccc4ccccc4n3)cn12`, with 14 nM; and `Cc1nc(COc2ccn3c(C(=O)c4ccc(Cl)cc4)c(CC(C)(C)C(=O)O)c(C(=O)C(C)(C)C)c3c2)no1`, with 90 nM; and `COc1ccc(C(=O)c2c(CC(C)(C)C(=O)O)c(C(=O)C(C)(C)C)c3cc(OCc4nc5ccccc5s4)ccn23)cc1`, with 1 nM. As for `CC(C)(C)C(=O)c1c(CC(C)(C)C(=O)O)c(C(=O)c2ccc(Cl)cc2)n2ccc(OCc3nc4ccccc4s3)cc12`, the figure is 4 nM; as for `CCC(C)(Cc1c(C(=O)C(C)(C)C)c2cc(OCc3csc(C)n3)ccn2c1C(=O)c1ccc(OC)cc1)C(=O)O` (stereo not drawn) [2-({1-(2,2-dimethylpropanoyl)-3-[(4-methoxyphenyl)carbonyl]-7-[(2-methyl-1,3-thiazol-4-yl)methoxy]indolizin-2-yl}methyl)-2-methylbutanoic acid], 2 nM. Then `COc1ccc(C(=O)c2c(CC(C(=O)O)C(C)C)c(C(=O)C(C)(C)C)c3cc(OCc4csc(C)n4)ccn23)cc1` (stereo not drawn) [2-({1-(2,2-dimethylpropanoyl)-3-[(4-methoxyphenyl)carbonyl]-7-[(2-methyl-1,3-thiazol-4-yl)methoxy]indolizin-2-yl}methyl)-3-methylbutanoic acid], with 13 nM; and `CCCC(Cc1c(C(=O)C(C)(C)C)c2cc(OCc3csc(C)n3)ccn2c1C(=O)c1ccc(OC)cc1)C(=O)O` (stereo not drawn) [2-({1-(2,2-dimethylpropanoyl)-3-[(4-methoxyphenyl)carbonyl]-7-[(2-methyl-1,3-thiazol-4-yl)methoxy]indolizin-2-yl}methyl)pentanoic acid], with 7 nM; and `COc1ccc(C(=O)c2c(CC(C(=O)O)C(C)C)c(C(=O)C(C)(C)C)c3cc(OCc4nc(C)cs4)ccn23)cc1` (stereo not drawn) [2-({1-(2,2-dimethylpropanoyl)-3-[(4-methoxyphenyl)carbonyl]-7-[(4-methyl-1,3-thiazol-2-yl)methoxy]indolizin-2-yl}methyl)-3-methylbutanoic acid], with 4 nM.

In the case of `CCC(C)(Cc1c(C(=O)C(C)(C)C)c2cc(OCc3cccc(C)n3)ccn2c1C(=O)c1ccc(OC)cc1)C(=O)O` (stereo not drawn) [2-({1-(2,2-dimethylpropanoyl)-3-[(4-methoxyphenyl)carbonyl]-7-[(6-methylpyridin-2-yl)methoxy]indolizin-2-yl}methyl)-2-methylbutanoic acid], the IC50 worked out at 2 nM. As for `COc1ccc(C(=O)c2c(CC(C(=O)O)C(C)C)c(C(=O)C(C)(C)C)c3cc(OCc4cccc(C)n4)ccn23)cc1` (stereo not drawn) [2-({1-(2,2-dimethylpropanoyl)-3-[(4-methoxyphenyl)carbonyl]-7-[(6-methylpyridin-2-yl)methoxy]indolizin-2-yl}methyl)-3-methylbutanoic acid], the figure is 3 nM.

On to `CCCC(Cc1c(C(=O)C(C)(C)C)c2cc(OCc3cccc(C)n3)ccn2c1C(=O)c1ccc(OC)cc1)C(=O)O` (stereo not drawn) [2-({1-(2,2-dimethylpropanoyl)-3-[(4-methoxyphenyl)carbonyl]-7-[(6-methylpyridin-2-yl)methoxy]indolizin-2-yl}methyl)pentanoic acid], for which the IC50 is 3 nM. As for `CCCC(Cc1c(C(=O)C(C)(C)C)c2cc(OCc3nc(C)cs3)ccn2c1C(=O)c1ccc(Cl)c(Cl)c1)C(=O)O` (stereo not drawn) [2-({3-[(3,4-dichlorophenyl)carbonyl]-1-(2,2-dimethylpropanoyl)-7-[(4-methyl-1,3-thiazol-2-yl)methoxy]indolizin-2-yl}methyl)pentanoic acid], the figure is 15 nM; as for `CCCC(Cc1c(C(=O)C(C)(C)C)c2cc(OCc3cccc(C)n3)ccn2c1C(=O)c1ccc(Cl)c(Cl)c1)C(=O)O` (stereo not drawn) [2-({3-[(3,4-dichlorophenyl)carbonyl]-1-(2,2-dimethylpropanoyl)-7-[(6-methylpyridin-2-yl)methoxy]indolizin-2-yl}methyl)pentanoic acid], 2 nM. As for `CCCC(Cc1c(C(=O)C(C)(C)C)c2cc(OCc3cccc(C)n3)ccn2c1C(=O)c1ccc(Cl)c(C)c1)C(=O)O` (stereo not drawn) [2-({3-[(4-chloro-3-methylphenyl)carbonyl]-1-(2,2-dimethylpropanoyl)-7-[(6-methylpyridin-2-yl)methoxy]indolizin-2-yl}methyl)pentanoic acid], the figure is 3 nM; as for `COc1ccc(C(=O)c2c(CC(C(=O)O)C(C)C)c(C(=O)C(C)(C)C)c3cc(OCc4nc5ccccc5s4)ccn23)cc1` (stereo not drawn) [2-({7-(1,3-benzothiazol-2-ylmethoxy)-1-(2,2-dimethylpropanoyl)-3-[(4-methoxyphenyl)carbonyl]indolizin-2-yl}methyl)-3-methylbutanoic acid], 1 nM; as for `COc1ccc(C(=O)c2c(CC(C(=O)O)C(C)C)c(C(=O)C(C)(C)C)c3cc(OCc4ccc5ccccc5n4)ccn23)cc1` (stereo not drawn) [2-{[1-(2,2-dimethylpropanoyl)-3-[(4-methoxyphenyl)carbonyl]-7-(quinolin-2-ylmethoxy)indolizin-2-yl]methyl}-3-methylbutanoic acid], 1 nM. As for `COc1ccc(C(=O)c2c(CC(C)(C)C(=O)O)c(C(=O)C(C)(C)C)c3cc(OCc4ccc5ccccc5n4)ccn23)cc1` [3-[1-(2,2-dimethylpropanoyl)-3-[(4-methoxyphenyl)carbonyl]-7-(quinolin-2-ylmethoxy)indolizin-2-yl]-2,2-dimethylpropanoic acid], the figure is 1 nM; as for `COc1ccncc1-c1ccc(C(=O)c2c(CC(C)(C)C(=O)O)c(C(=O)C(C)(C)C)c3cc(OCc4ccccn4)ccn23)cc1` [3-[1-(2,2-dimethylpropanoyl)-3-{[4-(4-methoxypyridin-3-yl)phenyl]carbonyl}-7-(pyridin-2-ylmethoxy)indolizin-2-yl]-2,2-dimethylpropanoic acid], 67 nM; as for `COc1cncc(-c2ccc(C(=O)c3c(CC(C)(C)C(=O)O)c(C(=O)C(C)(C)C)c4cc(OCc5ccccn5)ccn34)cc2)c1` [3-[1-(2,2-dimethylpropanoyl)-3-{[4-(5-methoxypyridin-3-yl)phenyl]carbonyl}-7-(pyridin-2-ylmethoxy)indolizin-2-yl]-2,2-dimethylpropanoic acid], 22 nM. Regarding `CC(C)c1ccn2c(C(=O)c3ccc(-c4cccnc4)cc3)c(CC(C)(C)C(=O)O)c(C(=O)C(C)(C)C)c2c1` [3-[1-(2,2-dimethylpropanoyl)-7-(propan-2-yl)-3-{[4-(pyridin-3-yl)phenyl]carbonyl}indolizin-2-yl]-2,2-dimethylpropanoic acid], the IC50 was 165 nM. Take `CC(C)c1ccn2c(C(=O)c3ccc(C(F)(F)F)cc3)c(CC(C)(C)C(=O)O)c(C(=O)C(C)(C)C)c2c1` [3-[1-(2,2-dimethylpropanoyl)-7-(propan-2-yl)-3-{[4-(trifluoromethyl)phenyl]carbonyl}indolizin-2-yl]-2,2-dimethylpropanoic acid]: the IC50 was found to be 316 nM. For the compound `Cc1nc(COc2ccn3c(C(=O)c4ccccc4)c(CC(C)(C)C(=O)O)c(C(=O)C(C)(C)C)c3c2)cs1` [3-[1-(2,2-dimethylpropanoyl)-7-[(2-methyl-1,3-thiazol-4-yl)methoxy]-3-(phenylcarbonyl)indolizin-2-yl]-2,2-dimethylpropanoic acid], the IC50 worked out at 101 nM.

Take `CC(C)(C)C(=O)c1c(CC(C)(C)C(=O)O)c(C(=O)c2ccc(Cl)cc2)c2ccc(OCc3nc4ccccc4s3)cn12` [3-[6-(1,3-benzothiazol-2-ylmethoxy)-1-[(4-chlorophenyl)carbonyl]-3-(2,2-dimethylpropanoyl)indolizin-2-yl]-2,2-dimethylpropanoic acid]: the half-inhibitory concentration (IC50) is 9 nM.

For `COc1ccc(C(=O)c2c(CC(C)(C)C(=O)O)c(C(=O)C(C)(C)C)c3cc(OCc4nc(C)cs4)ccn23)cc1` [3-{1-(2,2-dimethylpropanoyl)-3-[(4-methoxyphenyl)carbonyl]-7-[(4-methyl-1,3-thiazol-2-yl)methoxy]indolizin-2-yl}-2,2-dimethylpropanoic acid], the IC50 is 3 nM. As for `Cc1ccc(C(=O)c2c(CC(C)(C)C(=O)O)c(C(=O)C(C)(C)C)c3cc(OCc4cccc(C)n4)ccn23)cc1` [3-{1-(2,2-dimethylpropanoyl)-3-[(4-methylphenyl)carbonyl]-7-[(6-methylpyridin-2-yl)methoxy]indolizin-2-yl}-2,2-dimethylpropanoic acid], the figure is 3 nM. Turning to `CC(C)(C)C(=O)c1c(CC(C)(C)C(=O)O)c(C(=O)c2ccc(Cl)cc2)c2ccc(OCc3ccccn3)cn12` [3-{1-[(4-chlorophenyl)carbonyl]-3-(2,2-dimethylpropanoyl)-6-(pyridin-2-ylmethoxy)indolizin-2-yl}-2,2-dimethylpropanoic acid], the half-maximal inhibitory concentration (IC50) was 79 nM.

Source of the values: patent US8618300B2, “Indolizine inhibitors of leukotriene production” (Boehringer Ingelheim International GmbH, priority 2008, dated 2013).
